One series deals with T1, Aβ aggregate (Homo sapiens, UniProt P05067).
T1 construct: purchased DGpeptites, Hangzhou, CHINA
As to the kind of experiment: LC/MS/MS Aβ binding propensity (reduction of HYP peak area in MRM). The note with it: HYP 20–80 μM with 30 μM Aβ aggregate vs HYP alone. The text has this: Quercetin-3-O-β-D-galactopyranoside (Hyperoside, HYP), belongs to the class of flavonol glycosides and is derived from Crataegus pinnatifida Bunge Aβ is a well-known biomarker correlated to AD, therefore, the effect of HYP in targeting Aβ was investigated by molecular docking. […] HYP with Aβ molecular surface interaction and hydrogen bonding information were shown in supplementary 1A and 1B. […] The formation of Aβ aggregate and its particle size was verified by DLS (Fig. 1C). While the average particle size of the Aβ monomer is 365.62 nm, the particle size of Aβ aggregate is 1877 nm (Fig. 1D). The detection on the formation of Aβ aggregate was then performed by using the ThT fluorescence assay. ThT is a benzothiazole-like small molecule that specifically binds to amyloid fibrils. […] The direct binding affinity of HYP to Aβ aggregate was confirmed by the BLI assay. […] By using HYP alone (without Aβ aggregate incubation) as the control, all incubation mixtures were analyzed by using LC/MS/MS under the same chromatographic conditions according to our previous reported detection method. The quantitative reduction (%) in the peak area, representing the Aβ binding propensity of the tested compound [39] is used for statistical analysis.

Series [1] deals with HT22 cells. As to the kind of experiment: Mitochondrial membrane potential by JC-1. Format: cell-based.
From the text: The mitochondrial membrane potential of HT22 stained with 5,5′,6,6′-tetrachloro-1,1′,3,3′-tetraethylbenzimidazolyl cobalt iodide (JC-1) was observed by laser scanning confocal microscopy.
The target in the next series is T2, Aβ (1–42) (Homo sapiens, UniProt P05067).
T2 construct: purchased DGpeptites, Hangzhou, CHINA
Nature of the series: Thioflavin T (ThT) fluorescence assay of Aβ fibrillation. Format: biochemical. The note with it: Aβ 30 μM, 37 °C, day 1–7. The procedure: HYP was incubated with Aβ (30 μM) for 7 days at 37 °C at a final volume of 100 μL. ThT fluorescence measurement was measured for every 24 h. ThT (20 μM) dissolved in PBS (pH = 7.4) was added in a black 96-well plate with 10 μL of aggregated Aβ (with or without HYP) and incubated for 1 h. Fluorescence measurement was then performed using a microplate reader (SpectraMax Paradigm, Molecular Devices, CA, USA) with an excitation wavelength of 450 nm and an emission wavelength of 490 nm. Background fluorescence was measured in control samples containing PBS and 0.02 % DMSO.

For series [2], the system named is HT22 cells. As to the kind of experiment: Cell membrane permeability assay (intracellular HYP by LC-MS/MS). Format: in vitro ADME. The note with it: HYP 20–80 μM, 24 h. The procedure:
HT22 cells were co-treated with Aβ aggregates and HYP (20–80 μM) for 24 h and washed with PBS for 3 times. The cell membrane was disrupted with 200 μL methanol for the collection and centrifugation of cellular content at 20,000 rpm for 10 min. The supernatant was then collected for LC-MS/MS analysis. HYP content was quantified using UHPLC-MS/MS system, which includes Agilent 1290 Infinity UHPLC, and Agilent 6460 Triple Quadrupole, equipped with an electrospray ionization interface used to generate positive ions for the determination of HYP. The compounds were analyzed by using the Agilent Zorbax Eclipse Plus C-18 column with a particle size of […] (flow rate: 0.35 mL/min). The mobile phase was set as follows: mobile phase A (0.1% formic acid in water) and mobile phase B (0.1% formic acid in ACN): 0–3 min, 10–30% B; 3–4 min, 70% B; 4–5 min, 30–70% B; 5–6 min, 70-10% B. The column and auto-sampler temperature were maintained at 30 °C and 4 °C, respectively. Data were analyzed by using Agilent MassHunter Workstation software B.01.03. The gas temperature was set at 300 °C with a flow rate of 11 L/min. Gases were set at 30 psi for the nebulizer, capillary, at 4000 V. For the HYP, the fragment was 170. The collision energy was set at 30; The mass transitions were as follows based on multiple reaction monitoring: m/z 464.38 → 299.9. For the Isorhamnetin (ISO), the fragment was 150. […]

A further series concerns APP/PS1 mice. As to the kind of experiment: Rotarod test. Format: in vivo. The note with it: HYP nasal, every 3 days, 8 weeks. The method, then:
All animal care and experimental procedures were performed in accordance with the “Institutional Animal Care and User Committee Guidelines” of the Macau University of Science and Technology. APP/PSEN1 (APP/PS1) mice (N000175) were purchased from the Nanjing Institute of Biomedical Sciences, Nanjing University, China, weighing 25 ± 5 g. The animals were housed in a temperature-controlled room with a 12 h light/dark cycle and given ad libitum food and water. Male mice were randomly divided into the following 6 experimental groups. (a) wild-type group (n = 6), (b) APP/PS1 group (n = 6), (c) HYP (20 mg/kg group) (n = 7), (d) HYP (40 mg/kg) group (n = 8), (e) HYP (80 mg/kg) group (n = 8) and (f) memantine (MEM) (10 mg/kg) positive control group (n = 8). HYP was dissolved in the solvent containing 10% DMSO, 40% PEG300 and 5% Tween-80 in PBS, and administrated via nasal injection for every 3 days with a volume of 0.5 μL/g of body weight for 8 consecutive weeks. The rotarod test was used to monitor motor coordination. The test consisted of placing the animal on a rotating rod with a rotational speed of 25 rpm (Yuyan, Shanghai, China) until the animal fell to the ground and the movement time was recorded. The test was performed three times with an interval of 300 s, and the mean of the test results were calculated.
Background: In the rotarod test animals must keep their balance on a rotating rod.

A further series can be described thus: Solubility in water. Format: physicochemical.
Series [3] deals with HT22 cells. Nature of the series: ATP content measurement by LC-MS/MS. The note with it: Aβ aggregates with HYP 20, 40, 80 μM, 24 h. Format: cell-based. The method, then:
HT22 cells were co-treated with Aβ aggregates and HYP (20–80 μM) for 24 h and washed with PBS. Each digested sample was re-suspended in 10 mL of ice-cold PBS, followed by centrifugation for 5 min (300 g, 4 °C). Cell pellets were then treated with 85% cold methanol (2 × 10^6 cells / 100 μL) containing 2 μM ATP-^13C10,^15N5, then vortexed for 1 min and placed on ice for 10 min. After centrifugation (13,000 g) at 4 °C for 15 min, the supernatant was transferred into another tube. The derivatization reaction was initiated by adding 75 μL of derivatization reagent MTBSTFA into 200 μL of cell lysis with 85% methanol and completed over 5 min with consistent vortex. Derivatization samples were then centrifuged (13,000 g) at 4 °C for 10 min, and 25 μL of the supernatant was injected into LC-MS/MS system for analysis.

T1 sequence (P05067 672-713 limits assumed): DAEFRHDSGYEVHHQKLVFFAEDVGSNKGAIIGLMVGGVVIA
T2 sequence (P05067 672-713 limits assumed): as above

As for `O=c1c(O[C@@H]2O[C@H](CO)[C@H](O)[C@H](O)[C@H]2O)c(-c2ccc(O)c(O)c2)oc2cc(O)cc(O)c12` [HYP, Quercetin-3-O-β-D-galactopyranoside], the “decrease in the peak area of HYP in MRM (Aβ binding propensity)” value on Aβ aggregate is “dose-dependent binding affinity”. Besides, in the series with HT22 cells [1] (Aβ aggregates + HYP 20–80 μM, 24 h), the “mitochondrial membrane potential (ratio of aggregated and monomeric JC-1)” value is reported as “rescue the loss of mitochondrial membrane potential induced by Aβ aggregates in a dose-dependent manner”. In addition, the “mitochondrial membrane potential (JC-1)” value in the series with HT22 cells [1] (HYP alone) was “no effect”. The “Aβ fibrillation and aggregation (ThT fluorescence)” value on Aβ (1–42) was “reduced Aβ fibrillation and aggregation”. In the series on HT22 cells [2], the “intracellular level of HYP” value was “increased upon the escalating concentration of HYP”. Also, in the series with APP/PS1 mice, the “motor ability (time retained on the rotating rod)” value was “improved after HYP treatment”. The solubility in water entry in the series “Solubility in water” was “insoluble in water”. Also, the ATP content result with HT22 cells [3] is “rescued the Aβ-induced decrease in mitochondrial ATP”.

For the origin of these results see article PMC9975698, “Hyperoside alleviates toxicity of β-amyloid via endoplasmic reticulum-mitochondrial calcium signal transduction cascade in APP/PS1 double transgenic Alzheimer's disease mice” (Redox Biology, 2023).
